From US7704533B2, “Compositions and methods of inducing hair growth utilizing Continus coggygria” (J&J Consumer Companies, Inc., priority 2006, dated 2010)

Tests used:
[1] = tested on: postmenopausal women with androgenetic alopecia; conditions: one-year trial; cited from earlier work
C3H mice = test: Hair growth induction in C3H mice (mice entering anagen); type: in vivo
From the text: C3H female mice age 6-7 weeks of age were purchased from Taconic Farms (Germantown, N.Y.). Mice were housed in appropriately sized cages in an environmentally controlled room with a 12-hour light-12-hour dark photoperiod and supplied with food and water ad libitum. Animal care was based on the “Guide for the Care and Use of Laboratory Animals”, NIH Publication No. 85-23. Animals were acclimated for a week before study starts. Once all mice entered their prolonged telogen/resting phase (about 50-60 days long) of the hair cycle, they were clipped over the dorsal area about 1.5×5 cm (Wahl Clippers 8900 Series, Blade # 1086). Seven female mice per group were clipped while sedated with 2% induction and maintenance isoflurane and 0.5 L Oxygen. In addition to the 150 mg/ml Cotinus coggygria formulation, the treatment groups included a placebo, 5% Minoxidil as positive control and an untreated group to serve as control for natural hair growth initiation and to observe placebo effects. 200 μl of test materials were applied topically to the area daily, 5 days a week. Images were taken at the first signs of anagen/active growth phase and when needed based on visual observation. Skin samples were obtained for histological analysis at week 3 and a study log documenting day-to-day observations of mice entering anagen (grey skin, the first visual clue to a new hair growth) were recorded. Treatments continued for up to 6 weeks. […] C3H mice were treated as described in Example 3. In addition to the 150 mg/ml Cotinus coggygria formulation prepared as a concentrate via heat processing, a lyophilized Cotinus extract powder was prepared as described above, as well as lower (60 mg/ml, 90 mg/ml, 120 mg/ml) and higher concentrations (up to 210 mg/ml) of Cotinus coggygria extracts (Table III). The treatment groups included a placebo, 5% minoxidil as positive control and an untreated group to serve as control for natural hair growth initiation and to observe placebo effects. 200 ul of test materials were applied topically to the area daily, 5 days a week. Images were taken at the first signs of anagen/active growth phase and when needed based on visual observation. Skin samples were obtained for histological analysis and a study log documenting day-to-day observations of mice entering anagen (grey skin) were recorded. Treatments continued for up to 6 weeks. […] Moreover, a dose-dependent increase in dorsal hair coverage was observed visually and documented by images, and also confirmed by histological analysis. […] C3H female mice clipped over the dorsal area once they have entered their prolonged telogen phase (about 8 weeks long) were topically treated once daily for 6 weeks with 200 μl 150 mg/ml of Cotinus coggygria extract or with 5% Minoxidil or with the combination of both agents. […] C3H hair growth studies were performed as described in earlier examples, with the addition of formulation agents to the cotinus extract preparation.

## CC(C)(C)NC(=O)[C@H]1CC[C@H]2[C@@H]3CC[C@H]4NC(=O)C=C[C@]4(C)[C@H]3CC[C@]12C [Finasteride]
[1]
  scalp hair growth: did not improve scalp hair growth

## Nc1cc(N2CCCCC2)nc(N)[n+]1[O-] [5% Minoxidil, Minoxidil]
C3H mice; Table II, day 9 of study, listed as Ave 5% Minoxidil
  % of mice entering anagen: 7%
C3H mice; Table II, day 9 of study, listed as Best 5% Minoxidil
  % of mice entering anagen: 20%
C3H mice; Table II, day 10 of study, listed as Ave 5% Minoxidil
  % of mice entering anagen: 18%
C3H mice; Table II, day 10 of study, listed as Best 5% Minoxidil
  % of mice entering anagen: 40%
C3H mice; Table II, day 13 of study, listed as Ave 5% Minoxidil
  % of mice entering anagen: 18%
C3H mice; Table II, day 13 of study, listed as Best 5% Minoxidil
  % of mice entering anagen: 40%
C3H mice; Table II, day 14 of study, listed as Ave 5% Minoxidil
  % of mice entering anagen: 31%
C3H mice; Table II, day 14 of study, listed as Best 5% Minoxidil
  % of mice entering anagen: 80%
C3H mice; Table II, day 16 of study, listed as Ave 5% Minoxidil
  % of mice entering anagen: 31%
C3H mice; Table II, day 16 of study, listed as Best 5% Minoxidil
  % of mice entering anagen: 80%
C3H mice; Table II, day 20 of study, listed as Ave 5% Minoxidil
  % of mice entering anagen: 32%
C3H mice; Table II, day 20 of study, listed as Best 5% Minoxidil
  % of mice entering anagen: 80%
C3H mice; Table II, day 22 of study, listed as Ave 5% Minoxidil
  % of mice entering anagen: 41%
C3H mice; Table II, day 22 of study, listed as Best 5% Minoxidil
  % of mice entering anagen: 80%
C3H mice; Table II, day 23 of study, listed as Ave 5% Minoxidil
  % of mice entering anagen: 38%
C3H mice; Table II, day 23 of study, listed as Best 5% Minoxidil
  % of mice entering anagen: 80%
C3H mice; Table II, day 24 of study, listed as Ave 5% Minoxidil
  % of mice entering anagen: 36%
C3H mice; Table II, day 24 of study, listed as Best 5% Minoxidil
  % of mice entering anagen: 75%
C3H mice; Table II, day 27 of study, listed as Ave 5% Minoxidil
  % of mice entering anagen: 36%
C3H mice; Table II, day 27 of study, listed as Best 5% Minoxidil
  % of mice entering anagen: 75%
C3H mice; Table II, day 29 of study, listed as Ave 5% Minoxidil
  % of mice entering anagen: 36%
C3H mice; Table II, day 29 of study, listed as Best 5% Minoxidil
  % of mice entering anagen: 100%
C3H mice; Table II, day 31 of study, listed as Ave 5% Minoxidil
  % of mice entering anagen: 45%
C3H mice; Table II, day 31 of study, listed as Best 5% Minoxidil
  % of mice entering anagen: 100%
C3H mice; Table II, day 35 of study, listed as Ave 5% Minoxidil
  % of mice entering anagen: 48%
C3H mice; Table II, day 35 of study, listed as Best 5% Minoxidil
  % of mice entering anagen: 100%
C3H mice; Table II, day 42 of study, listed as Ave 5% Minoxidil
  % of mice entering anagen: 63%
C3H mice; Table II, day 42 of study, listed as Best 5% Minoxidil
  % of mice entering anagen: 100%
C3H mice; Table II, day 43 of study, listed as Ave 5% Minoxidil
  % of mice entering anagen: 87%
C3H mice; Table II, day 43 of study, listed as Best 5% Minoxidil
  % of mice entering anagen: 100%
C3H mice; Table II, day 44 of study, listed as Ave 5% Minoxidil
  % of mice entering anagen: 93%
C3H mice; Table II, day 44 of study, listed as Best 5% Minoxidil
  % of mice entering anagen: 100%
C3H mice; Table III, day 8 of study
  % of mice entering anagen: 0%
C3H mice; Table III, day 9 of study
  % of mice entering anagen: 0%
C3H mice; Table III, day 10 of study
  % of mice entering anagen: 14%
C3H mice; Table III, day 11 of study
  % of mice entering anagen: 43%
C3H mice; Table III, day 14 of study
  % of mice entering anagen: 33%
C3H mice; Table III, day 15 of study
  % of mice entering anagen: 33%
C3H mice; Table III, day 16 of study
  % of mice entering anagen: 33%
C3H mice; Table III, day 17 of study
  % of mice entering anagen: 20%
C3H mice; Table III, day 18 of study
  % of mice entering anagen: 40%
C3H mice; Table III, day 21 of study
  % of mice entering anagen: 80%
C3H mice; Table III, day 22 of study
  % of mice entering anagen: 80%
C3H mice; Table III, day 23 of study
  % of mice entering anagen: 80%
C3H mice; Table III, day 24 of study
  % of mice entering anagen: 80%
C3H mice; Table III, day 25 of study
  % of mice entering anagen: 80%
C3H mice; Table III, day 28 of study
  % of mice entering anagen: 80%
C3H mice; Table III, day 29 of study
  % of mice entering anagen: 80%
